# Measured values reported in US20060167229A1, “Biologically active peptide conjugates” (priority 2002, published 2006).
# Marks after values point to notes of the source that are not given here. Ends that are not written are not given here.
# Key:
# [1] = tested on: T lymphocyte; assay: T lymphocyte transformation test (ConA-stimulated spleen cells of treated mice, MTT); type: in vivo, BALB/c mice; settings: for X ± SD (stimulation index): healthy mice, saline 1.3 ± 0.1; for effect on T lymphocyte transformation (summary): statistically significant difference from saline in any of the dosage groups 0.5-500 μg/kg/day
# Protocol: (§1) The above substances were all dissolved in 0.5 ml saline and injected intraperitoneal (i.p.) for 15 continuous days, once per day.
# (§2) Ten mice per group. The day after the last test substance administration, the mice were sacrificed by cervical dislocation. The spleen was isolated aseptically and manually dispersed in cold D-Hank's solution using an injection needle. The dispersed cell suspension was further sieved through a 100 gauge 150 μm diameter stainless steel sieve. After centrifugation at 200 g for 10 minutes, the supernatant was discarded. The cell pellet was re-suspended in 10 volume of Tris-NH4Cl buffer and then kept standing still for 10 minutes at room temperature. The suspended cells were collected by centrifugation at 150 g for 10 minutes. The cells were washed 2-4 times with cold D-Hank's solution by re-suspending and collecting by centrifugation with condition as described above. The washed cells were then diluted to the desired cell densities by RPMI-1640 culture medium, containing 10% fetal bovine serum.
# (§3) Spleen cells of density 1×10^6/ml were placed onto a 96 wells cell culture plate, 100 μL/well, three parallel wells each of the assay sample and control sample per mouse. To the assay wells, 100 μl/well ConA of 100 μg/ml in RPMI-1640 was added, and […] plain RPMI-1640 was used for the controls. The cells were incubated for 66 hrs at 37° C., 5% CO2. The cells were then pelleted by centrifugation at 150 g for 10 minutes.
# 50 μl/well MTT of 1 mg/ml in RPMI-1640 was added to the cell pellet and the cells re-suspended by shaking for 2 minutes. The incubation was continued for 4 hours. The supernatant was discarded after centrifugation at 150 g for 10 minutes. 120 μl 40 mM HCl-2-propanol was added to the cell pellet and shaken for 3 minutes. […]
# Each mouse formed three assay wells and three control wells. The Stimulation Index (SI) of each mouse was obtained by first deriving the average OD of the three parallel wells, then dividing the value of the assay wells by the control wells.
# [2] = tested on: spleen; assay: Immunity organ weight test, spleen index; type: in vivo, BALB/c mice; settings: for weight of spleen (spleen index), X ± SD (%): healthy mice, peptide 500 μg/kg/day i.p. 15 days, saline 0.53 ± 0.05; for effect on the weight of the spleen (summary): statistically significant difference from saline in any of the dosage groups 0.5-500 μg/kg/day
# Protocol: (§4) One day after the last test substance administration (day 16), the liver, spleen, and thymus gland were separated and blotted dry with filter paper and weighed. The phagocytosis index α was calculated as below: α=(^3√{square root over ( )}K)(W÷WLS)
# Spleen index (%)=(spleen weight/body weight)×100%
# [3] = tested on: anti-SRBC antibody; assay: Sheep Red Blood Cell (SRBC) hemolysis test, antibody formation; type: in vivo, BALB/c mice; settings: for anti-SRBC antibody formation, X ± SD (Unit): healthy mice, SRBC day 12 (IFN-γ, IL-2 3×10^5 IU/kg/day), saline 32 ± 7; for effect on the synthesis of anti-SRBC antibody upon the antigenic challenge (summary): statistically significant difference from saline in any of the dosage groups 0.5-500 μg/kg/day
# Protocol: Sheep red blood cells (SRBC) were prepared by collecting blood from cervical vein and put into a sterile flask with glass beads. The flask was shaken for 3 minutes and the blood then mixed with Alsever solution (glucose 2.05 g, NaCl 0.4 g, […] 0.8 g, adjust to 100 ml with distilled water) and stored at 4° C. Immediately before use, samples were centrifuged at 130 g, 5 minutes to collect the SRBC. The cells were washed two times by re-suspension and centrifugation in normal saline. Then the cell pellet was collected by centrifugation at 180 g for 10 minutes and re-suspended in saline to make the final working SRBC suspension, 2% (v/v).
# Complement was prepared by adding 10 volumes of fresh Cavy serum into one volume centrifuge packed SRBC, and then gently shaking for 30 minutes at 4° C. The SRBC was removed by centrifugation at 200 g for 10 minutes. 10 volumes of normal saline were added to obtain the working complement solution.
# The test substances were administered as described in section 1.1, plus intraperitoneal injection 0.2 ml SRBC per mouse on day 12. On the day after the last test substance administration (day 16), blood was collected from the eye canthus and left at room temperature for one hour for serum exudation. After centrifugation at 200 g for 10 minutes, the serum was diluted by 500 times with normal saline.
# To 1 ml diluted mouse serum of each mouse, 0.5 ml SRBC suspension was added. Ice cold. Then 1 ml working complement solution was added and incubated at 37° C. water bath for 10 minutes. Reactions were terminated by ice cold. Samples were then centrifuged at 200 g for 10 minutes to obtain the supernatant.
# To 1 ml of this supernatant, 3 ml Drabkin solution was added and left at room temperature for 10 minutes. OD540 nm was obtained.
# Reference OD540 nm was obtained by mixing 0.25 ml SRBC suspension with Drabkin solution to 4 ml and placed at room temperature for 10 minutes before OD540 nm was taken.
# Sample serum index=(OD540 nm of test sample÷reference OD540 nm)×500
# [4] = tested on: IL-2; assay: T lymphocyte IL-2 secretion test (HT-2 cell bioassay of ConA supernatant); type: in vivo, BALB/c mice; settings: for activity of T lymphocyte in secreting IL-2, X ± SD (IU): healthy mice
# Protocol: as §3
# HT-2 cells at log phase were collected by centrifugation at 150 g for 10 minutes, and washed three times with cold Hank's solution by re-suspension and centrifugation. The collected HT-2 cells were re-suspended in RPMI-1640 and incubated at 37° C., 5% CO2 for 30 minutes. The cells were further washed twice with RPMI-1640 by re-suspension and centrifugation, and re-suspended to final concentration of 2×10^5/ml with RPMI-1640.
# rIL-2 was diluted to the following concentration with RPMI-1640: 500 IU/ml, 250 IU/ml, 125 IU/ml, 62.5 IU/ml, 31.25 IU/ml, and […].
# The plate was incubated at 37° C., 5% CO2 for 68 hours, then centrifuged at 150 g for 15 minutes and the supernatant removed. 100 μl 0.5 mg/ml MTT in RPMI-1640 without phenolsulfonphthalein was added into each well. After shaking for 3-4 minutes to re-suspend the cells, continue to incubate for another 4 hours. Samples were then centrifuged at 150 g for 15 minutes and the supernatant was removed. To each well, 120 μl 40 mM HCl-2-propanol was added, mixed for 3-4 minutes and OD analyzed at 570 nm, referenced at 630 nm with an ELISA plate reader.
# The average OD of the three parallel wells of each dilution was taken and plotted against concentration on a semi-log paper, concentration on the X-axis. The concentration at 50% OD saturation was obtained for both the testing supernatant and rIL-2.
# [5] = tested on: NK cell; assay: NK cell cytotoxicity activity test (spleen cells of treated mice against YAC-1 target cells, MTT); type: in vivo, BALB/c mice; settings: for NK cell cytotoxic activity, X ± SD (%): healthy mice; for effect on the cytotoxic activity of NK cells (summary): statistically significant difference from saline in any of the dosage groups 0.5-500 μg/kg/day
# Protocol: as §1, §2
# Mice spleen cells were prepared to 4×10^6/ml as described in section 1.1 above. Target cells YAC-1 were brought to log phase and adjusted to 1×10^5/ml. Using a 96 wells cell culture plate, […] were added to the control well containing only the spleen cells; […] and 100 μl culture medium were added to the control well containing only target cells; 100 μl mouse spleen cells and 100 μl target cells were added to the NK activity assay well. Three parallel sets of the above were prepared per mouse.
# Samples were centrifuged at 150 g for 10 minutes to collect the cells. The supernatant was discarded and 50 μl/well MTT of 1 mg/ml was added. The reaction-mixture was then shaken for 2 minutes, and incubated at 37° C., 5% CO2 for 4 hours. The supernatant was discarded after centrifugation at 150 g for 10 minutes. […] 40 mM HCl-2-propanol was added and shaken for 3 minutes. An ELISA reader was used to obtain OD570 nm of each well referenced at 630 nm.
# [6] = tested on: mononuclear phagocyte; assay: Carbon particle clearance test, phagocytosis function; type: in vivo, BALB/c mice; design: key to X ± SD (phagocytotic index): α = cube root of K × (body weight ÷ liver+spleen weight)
# Protocol: On the next day after the last test substance administration (day 16), the mice were injected with […] body weight India ink (5 times dilution with normal saline) from the tail vein.
# One minute and five minutes after Indian ink injection, 20 μl blood was obtained from the eye canthus with a heparinized tubing. The blood was mixed with 2 ml 0.1% w/v Na2CO3 and then OD680 nm obtained. The outline clear index K was calculated by the following formula: K=(lgA1−lgA2)÷(t2−t1)
# as §4
# [7] = tested on: thymus gland; assay: Immunity organ weight test, thymus gland index; type: in vivo, BALB/c mice; settings: for weight of thymus gland (thymus gland index), X ± SD (%): healthy mice, saline 0.12 ± 0.02; for effect on the weight of the thymus gland (summary): statistically significant difference from saline in any of the dosage groups 0.5-500 μg/kg/day
# Protocol: as §4
# Thymus gland index (%)=(thymus weight/body weight)×100%
# [8] = tested on: interferon (IFN); design: species or system BALB/c mice; settings: mouse, in vivo; for activity of T lymphocyte in secreting IFN, X ± SD (IU): ip
# [9] = peptide 5 μg/kg/day i.p. 15 days (IFN-γ, IL-2 3×10^5 IU/kg/day)
# [10] = peptide 500 μg/kg/day i.p. 15 days (IFN-γ, IL-2 3×10^5 IU/kg/day)
# [11] = peptide 5 μg/kg/day i.p. 15 days
# [12] = peptide 500 μg/kg/day i.p. 15 days
# [13] = statistically significant difference from saline in any of the dosage groups 0.5-500 μg/kg/day
# [14] = peptide 500 μg/kg/day i.p. 15 days (IFN-γ, IL-2 3×10^5 IU/kg/day), saline 63 ± 9
# [15] = peptide 0.5 μg/kg/day i.p. 15 days
# [16] = peptide 50 μg/kg/day i.p. 15 days
Substance,"X ± SD (stimulation index) [1, 10]",effect on T lymphocyte transformation (summary) [1],"weight of spleen (spleen index), X ± SD (%) [2] [%]",effect on the weight of the spleen (summary) [2],"anti-SRBC antibody formation, X ± SD (Unit) [3, 11]","anti-SRBC antibody formation, X ± SD (Unit) [3, 12]",effect on the synthesis of anti-SRBC antibody upon the antigenic challenge (summary) [3],"NK cell cytotoxic activity, X ± SD (%) [5, 14] [%]",effect on the cytotoxic activity of NK cells (summary) [5],"weight of thymus gland (thymus gland index), X ± SD (%) [7, 9]",effect on the weight of the thymus gland (summary) [7],"anti-SRBC antibody formation, X ± SD (Unit) [3, 15]","anti-SRBC antibody formation, X ± SD (Unit) [3, 16]",effect on the secretion of IFN by T lymphocytes (summary) [8],"activity of T lymphocyte in secreting IFN, X ± SD (IU) [8]",other results
Ala Gly Asp Asp Ala Pro Arg Ala Val Phe (AGDDAPRAVF; listed as Sus scrofa) [CMS007],1.6 ± 0.1,enhance,0.32 ± 0.05,decrease,122 ± 12*^@^ Unit,69 ± 17*^@ Unit,enhance,,,,,,,,,"X ± SD (stimulation index) [1, 9]: 1.7 ± 0.1; activity of T lymphocyte in secreting IL-2, X ± SD (IU) ([4]; peptide 5 μg/kg/day i.p. 15 days (IFN-γ, IL-2 3×10^5 IU/kg/day), saline 37 ± 9): 64 ± 12 IU; activity of T lymphocyte in secreting IL-2, X ± SD (IU) ([4]; peptide 500 μg/kg/day i.p. 15 days (IFN-γ, IL-2 3×10^5 IU/kg/day), saline 39 ± 10): 86 ± 15*^ IU; effect on the secretion of interleukin-2 (IL-2) by T lymphocytes (summary) [4, 13]: enhance"
LRVAPQEHPVL [CMS013],,,0.44 ± 0.07,decrease,93 ± 28*^@ Unit,80 ± 16*^@ Unit,,84 ± 9,increase,0.21 ± 0.05 %,increase,7 ± 1 Unit,70 ± 9*^@ Unit,enhance,154 ± 15*^@^ IU,"X ± SD (phagocytotic index) ([6]; healthy mice, peptide 5 μg/kg/day i.p. 15 days (IFN-γ, IL-2 3×10^5 IU/kg/day), saline 5.1 ± 0.6): 6.7 ± 0.2; effect on the phagocytotic activity of mononuclear phagocyte (summary) [6, 13]: enhance"
MATAASSSSL [CMS021],1.6 ± 0.1,enhance,0.36 ± 0.04,decrease,82 ± 30*^@ Unit,,enhance,,increase,0.20 ± 0.06 %,increase,57 ± 9*^@ Unit,94 ± 20*^@^ Unit,enhance,143 ± 17*^@^ IU,"NK cell cytotoxic activity, X ± SD (%) ([5]; peptide 50 μg/kg/day i.p. 15 days (IFN-γ, IL-2 3×10^5 IU/kg/day), saline 56 ± 8): 88 ± 12*^@^ %"
Phe Gln Pro Ser Phe (FQPSF; printed: Phe Gln Pro Ser Phe) [CMS028],,,,,121 ± 48*^@^ Unit,,,90 ± 5,increase,0.28 ± 0.06*^@^ %,increase,18 ± 5 Unit,,enhance,96 ± 13 IU,"NK cell cytotoxic activity, X ± SD (%) ([5]; peptide 0.5 μg/kg/day i.p. 15 days (IFN-γ, IL-2 3×10^5 IU/kg/day), saline 58 ± 7): 79 ± 3 %; weight of thymus gland (thymus gland index), X ± SD (%) ([7]; peptide 0.5 μg/kg/day i.p. 15 days (IFN-γ, IL-2 3×10^5 IU/kg/day)): 0.20 ± 0.06 %; weight of thymus gland (thymus gland index), X ± SD (%) ([7]; peptide 50 μg/kg/day i.p. 15 days (IFN-γ, IL-2 3×10^5 IU/kg/day)): 0.18 ± 0.04 %; weight of thymus gland (thymus gland index), X ± SD (%) [7, 10]: 0.19 ± 0.02 %"
